Values quoted from earlier work as cited in patent publication US10441593B2, “Treatment of pain associated with dislocation of endometrium” (PREGLEM S.A., priority 2010, dated 2019).

Columns and labels:
[1] = tested on: liver enzyme; conditions: clinical development program; 12.5 mg, 25 mg and 50 mg; cited from earlier work
[2] = tested on: endometriosis; conditions: cited from earlier work

## COCC(=O)[C@@]1(OC(C)=O)CC[C@H]2[C@@H]3CCC4=CC(=O)CCC4=C3[C@@H](c3ccc(N(C)C)cc3)C[C@@]21C [Proellex]
[1]
  liver enzyme (sign of liver toxicity, DILI): dose related increase in liver enzyme
[2]; 50 mg group, end of the first months of therapy
  days of pain compared with baseline: statistically significant reduction in days of pain
[2]; 6 month study
  dose response in treatment of endometriosis: clearly support a dose response
